# Patent US4789478A, “Conversion of inorganic ions to metal sulfides by microorganisms” (priority 1987, dated 1988)
# Tested on: Desulfomonas and Citrobacter freundii
# Test: Effect of sulfate addition on sulfate-reducing activity of soil samples (Table 4)
# Method: Soil samples are treated with a culture of Desulfomonas (10^8 cells/mL) and Citrobacter freundii (10^4 cells/mL) at 30° C., with and without added sulfate. Sulfate, if added, is a 1:1 mixture by weight of ferric ammonium sulfate and magnesium sulfate. Sulfate-reducing activity is indicated by formation of black precipitate in the soil sample within 24 h after mixing the cultures with soil samples.
substance,measurement,setting,value
Sulfate,sulfate-reducing activity of the mixed culture (in words),100 ppm of sulfate,greatly improves sulfate-reducing activity of the mixed culture
same,sulfate reduction (in words),200 ppm of sulfate,permit reduction in all cases
